The results in this text go back to US10076519B2 (CYTOKINETICS, INC., priority 2010, dated 2018).

In one experiment the test system is rabbit skeletal myofibrils (fast skeletal myofibrils). Briefly: Activation of fast skeletal myofibrils (PUMA assay, PK/LDH-coupled ATPase at pCa25). It is filed as biochemical. To be noted: AC1.4 determined according to the procedure of Example 39; reported as class symbols. The method, boiled down:
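Detergent-washed rabbit psoas myofibrils (~90% fast fibres, calcium-regulated) assayed at calcium giving 25% of maximal ATPase rate (pCa25). ADP turnover coupled via pyruvate kinase/lactate dehydrogenase to NADH oxidation, read at 340 nm. Buffer 12 mM PIPES, 2 mM MgCl2, 1 mM DTT, pH 6.8; AC1.4 values derived.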
For the compound `NC(=O)c1cccc(-c2ccc(N[C@@H]3C[C@H]3c3ccccc3)nn2)c1`, the “Mean AC1.4” value is given as “D (D=>20 uM)”. As for `NC(=O)c1ccc(F)c(-c2ccc(NCC3(c4cc(O)ccn4)CCC3)nn2)c1`, the “Mean AC1.4” value was “D (D=>20 uM)”. With `O=c1ncc(-c2ccc(NCC3(c4ccc(F)cc4)CCC3)nn2)c[nH]1`, the “Mean AC1.4” value is “B (B=1-10 uM)”. Regarding `CC(C)(CNc1ccc(C(=O)NCc2cc[nH]n2)nn1)c1ccc(F)cc1` [(6-{[2-(4-fluorophenyl)-2-methylpropyl]amino}pyridazin-3-yl)-N-(pyrazol-3-ylmethyl)carboxamide], the “Mean AC1.4” value was “C (C=10-20 uM)”. In the case of `CC(C)(CNc1ccc(-c2cccnc2)nn1)c1ccc(F)cc1` [[2-(4-fluorophenyl)-2-methylpropyl](6-(3-pyridyl)pyridazin-3-yl)amine], the “Mean AC1.4” value was “B (B=1-10 uM)”.

On to `CC(C)(CNc1ccc(-c2ccc3[nH]nc(N)c3c2)nn1)c1ccc(CN)cc1` [[6-(3-amino(1H-indazol-5-yl))pyridazin-3-yl]{2-[4-(aminomethyl)phenyl]-2-methylpropyl}amine], for which the “Mean AC1.4” value is on record as “D (D=>20 uM)”.

On to `O=c1[nH]c2ccc(-c3ccc(NCC4(c5ccc(F)cc5)CC4)nn3)cc2[nH]1`, for which the “Mean AC1.4” value is “A (A=<1 uM)”. As to `CC(C)(CNc1ccc(-c2cccc(C(=O)NCC(O)CO)c2)nn1)c1ccc(F)cc1` (centres unmarked) [N-(2,3-dihydroxypropyl)[3-(6-{[2-(4-fluorophenyl)-2-methylpropyl]amino}pyridazin-3-yl)phenyl]carboxamide], the “Mean AC1.4” value is “B (B=1-10 uM)”. For `CC(C)Nc1n[nH]c2ccc(-c3ccc(NCC4(c5ncccc5F)CCC4)nn3)cc12` [{[(3-fluoro(2-pyridyl))cyclobutyl]methyl}(6-{3-[(methylethyl)amino](1H-indazol-5-yl)}pyridazin-3-yl)amine], the “Mean AC1.4” value was “A (A=<1 uM)”.

The same experiment, now with this note: median AC1.4 class, procedure of Example 39.
For the compound `O=C(NCc1cnc(-c2ccc(NCC3(c4ncccc4F)CCC3)nn2)s1)c1ncc[nH]1` [N-({2-[6-({[(3-fluoro(2-pyridyl))cyclobutyl]methyl}ami-no)pyridazin-3-yl](1,3-thiazol-5-yl)}methyl)imidazol-2-ylcarboxamide], the “Mean AC1.4” value was “A (A=<1 uM)”. As for `O=c1[nH][nH]c2ccc(-c3ccc(NCC4(c5ncccc5F)CCC4)nn3)cc12`, the “Mean AC1.4” value is “A (A=<1 uM)”. Consider `N#Cc1cccc(-c2ccc(NCC3(c4ccccn4)CCC3)nn2)c1` [3-(6-{[(2-pyridylcyclobutyl)methyl]ami-no}pyridazin-3-yl)benzenecarbonitrile], for which the “Mean AC1.4” value is recorded as “B (B=1-10 uM)”. As to `C=Cc1ccc(NCC2(c3ncccc3F)CCC2)nn1` [{[(3-fluoro(2-pyridyl))cyclobutyl]methyl}(6-vinylpyridazin-3-yl)amine], the “Mean AC1.4” value was “D (D=>20 uM)”. On to `Fc1cccnc1C1(CNc2ccc(-c3ncc(CC(F)(F)F)s3)nn2)CCC1` [{[(3-fluoro(2-pyridyl))cyclobutyl]methyl}{6-[5-(2,2,2-trifluoroethyl)(1,3-thiazol-2-yl)]pyridazin-3-yl}amine], for which the “Mean AC1.4” value was “B (B=1-10 uM)”. On the same count and under the same terms, next, `Fc1cccnc1C1(CNc2ccc(-c3cccc(F)c3F)nn2)CCC1` [[6-(2,3-difluorophenyl)pyridazin-3-yl]{[(3-fluoro(2-pyridyl))cyclobutyl]methyl}amine]: “A (A=<1 uM)”; `COC(=O)C1CN=C(c2ccc(NCC3(c4ncccc4F)CCC3)nn2)N1` (centres unmarked): “D (D=>20 uM)”; `NC(=O)c1cccc(-c2ccc(NC3(c4ccccn4)CCC3)nn2)c1` [3-{6-[(2-pyridylcyclobutyl)amino]pyridazin-3-yl}benzamide]: “D (D=>20 uM)”.

`NC(=O)Nc1ccc(-c2ccc(NCC3(c4ncccc4F)CC(F)(F)C3)nn2)cc1`: the “Mean AC1.4” value was “A (A=<1 uM)”. Regarding `O=C1CC[C@@H](C(=O)NCc2cnc(-c3ccc(NCC4(c5ncccc5F)CCC4)nn3)s2)N1` [((2S)-5-oxopyrrolidin-2-yl)-N-({2-[6-({[(3-fluoro(2-pyridyl))cyclobutyl]methyl}ami-no)pyridazin-3-yl](1,3-thiazol-5-yl)}methyl)carboxamide], the “Mean AC1.4” value was “A (A=<1 uM)”. Same read-out and setting: the entry for `O=c1[nH]c(-c2cnc(-c3ccc(NCC4(c5ncccc5F)CCC4)nn3)s2)no1` [3-{2-[6-({[(3-fluoro-2-pyridyl)cyclobutyl]methyl}ami-no)pyridazin-3-yl]-1,3-thiazol-5-yl}-1,2,4-oxadiazolin-5-one] is “B (B=1-10 uM)”; for `Fc1cccnc1C1(Nc2ccc(-c3ccc4cn[nH]c4c3)nn2)CCC1` [(6-(1H-indazol-6-yl)pyridazin-3-yl)[(3-fluoro(2-pyridyl))cyclobutyl]amine] it is “B (B=1-10 uM)”; for `CC(C)(Nc1ccc(-c2ccc(C(N)=O)cc2)nn1)c1ccccc1` [4-{6-[(1-methyl-1-phenylethyl)amino]pyridazin-3-yl}benzamide] it is “C (C=10-20 uM)”.

On to `NC(=O)NC1CC=C(c2ccc(NCC3(c4ncccc4F)CCC3)nn2)CC1` (centres unmarked), for which the “Mean AC1.4” value was “B (B=1-10 uM)”.

Regarding `O=C(O)c1ccc(F)c(-c2ccc(NC[C@]3(c4ncccc4F)C[C@H](F)C3)nn2)c1` [4-fluoro-3-[6-({[3-fluoro-1-(3-fluoro(2-pyridyl))cyclobutyl]methyl}ami-no)pyridazin-3-yl]benzoic acid], the “Mean AC1.4” value is reported as “A (A=<1 uM)”. `NC(=O)NC1CC(c2ccc(NCC3(c4ncccc4F)CCC3)nn2)C1` (centres unmarked): the “Mean AC1.4” value was “C (C=10-20 uM)”.

The same experiment, now with this note: median AC1.4 reported as class; procedure of Example 39.
As to `Cc1cc(C(N)=O)cc(-c2ccc(NC[C@]3(c4ncccc4F)C[C@H](F)C3)nn2)c1` [3-[6-({[3-fluoro-1-(3-fluoro(2-pyridyl))cyclobutyl]methyl}ami-no)pyridazin-3-yl]-5-methylbenzamide], the “Mean AC1.4” value is reported as “B (B=1-10 uM)”. On the same count and under the same terms, the entry for `CN(C)C(=O)c1ccc(NCC2(c3ncccc3F)CCC2)nn1` [[6-({[(3-fluoro(2-pyridyl))cyclobutyl]methyl}ami-no)pyridazin-3-yl]-N,N-dimethylcarboxamide] is “D (D=>20 uM)”. Turning to `CC(=O)N1CC(NC(=O)c2cccc(-c3ccc(NC[C@]4(c5ncccc5F)C[C@H](F)C4)nn3)c2)C1` [N-(1-acetylazetidin-3-yl){3-[6-({[3-fluoro-1-(3-fluoro(2-pyridyl))cyclobutyl]methyl}ami-no)pyridazin-3-yl]phenyl}carboxamide], the “Mean AC1.4” value is recorded as “B (B=1-10 uM)”. `NC(=O)c1ccc(O)c(-c2ccc(NCC3(c4ncccc4F)CCC3)nn2)c1` [3-[6-({[(3-fluoro(2-pyridyl))cyclobutyl]methyl}ami-no)pyridazin-3-yl]-4-hydroxybenzamide]: the “Mean AC1.4” value was “B (B=1-10 uM)”.

On to `OC[C@H]1CNCCN1Cc1cnc(-c2ccc(NCC3(c4ncccc4F)CCC3)nn2)s1` [[(2R)-1-({2-[6-({[(3-fluoro(2-pyridyl))cyclobutyl]methyl}ami-no)pyridazin-3-yl](1,3-thiazol-5-yl)}methyl)piperazin-2-yl]methan-1-ol], for which the “Mean AC1.4” value was “C (C=10-20 uM)”. Take `NC(=O)c1csc(NC(=O)c2ccc(NCC3(c4ncccc4F)CCC3)nn2)n1` [2-{[6-({[(3-fluoro-2-pyridyl)cyclobutyl]methyl}ami-no)pyridazin-3-yl]carbonylamino}-1,3-thiazole-4-carboxamide]: the “Mean AC1.4” value is given as “A (A=<1 uM)”. For `COc1ncc(-c2ccc(NCC3(c4ncccc4F)CCC3)nn2)cc1C#N` [5-[6-({[(3-fluoro(2-pyridyl))cyclobutyl]methyl}ami-no)pyridazin-3-yl]-2-methoxypyridine-3-carbonitrile], the “Mean AC1.4” value is recorded as “D (D=>20 uM)”.
